Article PMC12155096 (International Journal of Molecular Sciences, 2025)
pIC50: −log10 of the molar value. Where two headings read alike, the source gives them in different places.

Tests used:
[1] = molecular target: T1, human CYP1A2 (Homo sapiens, UniProt P05177)
T1 sequence (P05177 1-516): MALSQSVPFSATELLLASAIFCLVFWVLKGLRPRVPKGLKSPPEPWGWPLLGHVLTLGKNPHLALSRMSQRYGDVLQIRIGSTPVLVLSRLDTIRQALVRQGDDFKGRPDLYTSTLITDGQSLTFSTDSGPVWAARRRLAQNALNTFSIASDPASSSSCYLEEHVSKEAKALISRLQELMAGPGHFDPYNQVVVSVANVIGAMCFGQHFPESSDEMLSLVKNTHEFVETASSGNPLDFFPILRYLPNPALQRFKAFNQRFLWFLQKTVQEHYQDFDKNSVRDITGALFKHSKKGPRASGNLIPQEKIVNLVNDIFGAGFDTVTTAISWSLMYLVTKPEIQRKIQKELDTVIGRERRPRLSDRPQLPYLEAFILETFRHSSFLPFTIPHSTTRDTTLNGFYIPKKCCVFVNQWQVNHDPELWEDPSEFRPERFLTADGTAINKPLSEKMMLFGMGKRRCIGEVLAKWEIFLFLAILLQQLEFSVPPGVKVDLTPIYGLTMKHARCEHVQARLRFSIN

[2] = molecular target: human CYP2D6 (Homo sapiens, UniProt P10635)
[3] = molecular target: Photinus pyralis (firefly) luciferase (Photinus pyralis, UniProt P08659); assay: biochemical; format: biochemical
[4] = molecular target: CYP3A4 (Homo sapiens, UniProt P08684)
[5] = molecular target: human CYP2C9 (Homo sapiens, UniProt P11712)
[6] = molecular target: human CYP2C19 (Homo sapiens, UniProt P33261)
Sequence of human CYP2C19 (P33261 whole entry): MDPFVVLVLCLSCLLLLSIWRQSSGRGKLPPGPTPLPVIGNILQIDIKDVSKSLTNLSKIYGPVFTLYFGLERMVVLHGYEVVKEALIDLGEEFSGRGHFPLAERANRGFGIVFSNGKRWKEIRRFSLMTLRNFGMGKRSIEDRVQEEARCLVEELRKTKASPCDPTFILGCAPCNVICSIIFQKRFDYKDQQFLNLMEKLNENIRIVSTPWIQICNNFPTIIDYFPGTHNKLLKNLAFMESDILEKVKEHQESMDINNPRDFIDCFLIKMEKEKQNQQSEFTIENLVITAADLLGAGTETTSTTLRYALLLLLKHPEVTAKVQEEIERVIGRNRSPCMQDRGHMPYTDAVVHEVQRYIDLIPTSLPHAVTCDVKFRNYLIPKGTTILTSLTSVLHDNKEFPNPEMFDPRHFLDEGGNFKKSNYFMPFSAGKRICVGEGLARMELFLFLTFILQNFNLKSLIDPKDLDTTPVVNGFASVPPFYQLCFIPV

Sequence of CYP3A4 (P08684 whole entry): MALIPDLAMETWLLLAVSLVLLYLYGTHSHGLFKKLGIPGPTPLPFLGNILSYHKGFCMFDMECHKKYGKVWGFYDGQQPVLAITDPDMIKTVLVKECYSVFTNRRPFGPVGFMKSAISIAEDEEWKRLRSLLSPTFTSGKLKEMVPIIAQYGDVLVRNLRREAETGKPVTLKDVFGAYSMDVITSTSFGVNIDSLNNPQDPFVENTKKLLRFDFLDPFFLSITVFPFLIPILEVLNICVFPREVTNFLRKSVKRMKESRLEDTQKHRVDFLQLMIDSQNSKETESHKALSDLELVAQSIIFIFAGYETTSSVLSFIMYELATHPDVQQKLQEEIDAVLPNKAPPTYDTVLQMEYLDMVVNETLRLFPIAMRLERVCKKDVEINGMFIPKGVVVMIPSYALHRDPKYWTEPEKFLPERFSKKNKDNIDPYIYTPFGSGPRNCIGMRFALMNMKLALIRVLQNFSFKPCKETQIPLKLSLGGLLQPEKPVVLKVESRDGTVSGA
Sequence of Photinus pyralis (firefly) luciferase (P08659 whole entry): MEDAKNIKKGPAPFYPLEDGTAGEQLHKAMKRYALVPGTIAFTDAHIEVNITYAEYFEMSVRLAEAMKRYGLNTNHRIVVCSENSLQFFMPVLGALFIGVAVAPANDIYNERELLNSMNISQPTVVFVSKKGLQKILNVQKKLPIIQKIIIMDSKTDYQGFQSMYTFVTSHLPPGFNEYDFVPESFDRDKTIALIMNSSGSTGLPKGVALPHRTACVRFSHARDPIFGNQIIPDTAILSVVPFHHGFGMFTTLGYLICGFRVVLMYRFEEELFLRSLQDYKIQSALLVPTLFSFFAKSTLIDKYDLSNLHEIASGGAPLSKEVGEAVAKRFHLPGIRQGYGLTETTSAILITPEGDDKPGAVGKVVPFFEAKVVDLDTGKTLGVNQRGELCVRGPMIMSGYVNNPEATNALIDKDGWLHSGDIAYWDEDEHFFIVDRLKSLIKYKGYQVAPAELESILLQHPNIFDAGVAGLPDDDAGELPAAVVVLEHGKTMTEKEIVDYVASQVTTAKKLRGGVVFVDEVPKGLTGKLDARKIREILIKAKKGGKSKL
Sequence of human CYP2D6 (P10635 whole entry): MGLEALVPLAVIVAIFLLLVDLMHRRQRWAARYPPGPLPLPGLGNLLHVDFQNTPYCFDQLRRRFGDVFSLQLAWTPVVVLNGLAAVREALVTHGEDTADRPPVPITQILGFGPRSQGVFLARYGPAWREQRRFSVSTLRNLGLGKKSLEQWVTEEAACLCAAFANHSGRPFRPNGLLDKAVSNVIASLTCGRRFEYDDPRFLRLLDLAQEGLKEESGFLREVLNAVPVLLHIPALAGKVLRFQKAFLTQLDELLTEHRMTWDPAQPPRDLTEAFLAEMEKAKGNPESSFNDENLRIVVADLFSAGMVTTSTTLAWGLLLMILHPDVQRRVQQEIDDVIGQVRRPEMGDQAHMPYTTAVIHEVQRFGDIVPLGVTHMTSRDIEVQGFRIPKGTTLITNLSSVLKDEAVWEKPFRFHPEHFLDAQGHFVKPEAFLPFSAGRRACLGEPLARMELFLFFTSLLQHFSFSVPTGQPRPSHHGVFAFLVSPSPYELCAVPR
Sequence of human CYP2C9 (P11712 whole entry): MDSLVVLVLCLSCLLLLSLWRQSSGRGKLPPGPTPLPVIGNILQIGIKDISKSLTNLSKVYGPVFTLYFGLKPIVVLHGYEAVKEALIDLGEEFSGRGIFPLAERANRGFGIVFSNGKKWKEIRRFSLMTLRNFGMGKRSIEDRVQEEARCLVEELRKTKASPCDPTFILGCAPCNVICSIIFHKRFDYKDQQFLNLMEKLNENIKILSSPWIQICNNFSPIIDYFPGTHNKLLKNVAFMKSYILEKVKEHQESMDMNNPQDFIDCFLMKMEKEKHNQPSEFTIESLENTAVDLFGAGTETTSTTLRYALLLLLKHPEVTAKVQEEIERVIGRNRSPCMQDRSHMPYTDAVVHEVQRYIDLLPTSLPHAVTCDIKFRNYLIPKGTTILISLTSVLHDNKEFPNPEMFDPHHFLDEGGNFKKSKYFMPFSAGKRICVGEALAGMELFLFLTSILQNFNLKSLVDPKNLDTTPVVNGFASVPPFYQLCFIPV

Row | SMILES | pIC50 [1] | pIC50 [2] | Luciferase IC50 (half-maximal inhibitory concentration) [3] | pIC50 [4] | pIC50 [5] | pIC50 [6] | CYP2D6 IC50 (half-maximal inhibitory concentration) [2] | CYP2C9 Efficacy [5] | further results
1 | COC(=O)C1=C(C)NC(C)=C(C(=O)O[C@@H]2CCCN(Cc3ccccc3)C2)[C@@H]1c1cccc([N+](=O)[O-])c1.Cl (racemic) [rac Benidipine hydrochloride] | 4.60 | 4.87 | Inactive | 6.08 | 6.12 | 5.19 | – | – | –
2 | Cl.OC(CNCC(O)C1CCc2cc(F)ccc2O1)C1CCc2cc(F)ccc2O1 (racemic) [rac Nebivolol hydrochloride] | – | 6.60 | Inactive | – | – | 4.38 | – | – | CYP1A2 IC50 (half-maximal inhibitory concentration) [1]: Inactive; CYP2D6 Efficacy [2]: 0.25 ± 0.05 (-104 ± 2) %; AC50 [4]: 16.1 µM; CYP3A4 IC50 (half-maximal inhibitory concentration) [4]: 16.12 ± 1.09 (65 ± 10) µM; CYP2C9 IC50 (half-maximal inhibitory concentration) [5]: Inactive; CYP2C19 Efficacy [6]: 41.28 ± 3.36 (-60 ± 3) %
3 | CC(=C(CCOC(=O)C(C)C)SSC(CCOC(=O)C(C)C)=C(C)N(C=O)Cc1cnc(C)nc1N)N(C=O)Cc1cnc(C)nc1N (stereo in doubt) [Bisibutiamine] | – | – | Inactive | 6.44 | – | – | Inactive | – | CYP1A2 IC50 (half-maximal inhibitory concentration) [1]: Inactive; CYP2C9 IC50 (half-maximal inhibitory concentration) [5]: Inactive; CYP2C19 IC50 (half-maximal inhibitory concentration) [6]: Inactive
4 | N=C(Nc1ccccc1)Nc1ccccc1 [1,3-Diphenylguanidine] | 4.51 | 6.70 | – | 4.28 | 4.27 | 4.35 | – | – | Luciferase IC50 [3]: Inactive
5 | CC[N+]1(C)CCCC1.[I-] [1-Ethyl-1-methylpyrrolidinium iodide] | 4.12 | 8.00 | – | – | – | 4.57 | – | – | Luciferase IC50 [3]: Inactive; CYP3A4 IC50 [4]: Inactive; CYP2C9 IC50 [5]: Inactive
6 | CCCCCCCCCCCCCCCCn1cc[n+](C)c1.[Cl-] [1-Hexadecyl-3-methylimidazolium chloride] | 4.16 | 6.42 | Inactive | 4.20 | 4.26 | 4.28 | – | – | CYP1A2 Efficacy (in parenthesis) [1]: 69.7 ± 29.29 (-90 ± 28) %; CYP2D6 Efficacy (in parenthesis) [2]: 0.38 ± 0.13 (-102 ± 3) %; CYP3A4 Efficacy (in parenthesis) [4]: 63.62 ± 15.46 (-70 ± 19) %; CYP2C9 Efficacy (in parenthesis) [5]: 55.36 ± 23.27 (-121 ± 6) %; CYP2C19 Efficacy (in parenthesis) [6]: 52.99 ± 35.71 (-145 ± 35) %
7 | O=C(Nc1ccccc1SSc1ccccc1NC(=O)c1ccccc1)c1ccccc1 [2,2'-Dibenzoylaminodiphenyl disulfide] | 5.17 | – | – | 5.49 | 6.24 | 5.40 | 37.5 ± 45.35 (15 ± 47) µM | – | CYP1A2 Efficacy (in parenthesis) [1]: 6.73 ± 1.52 (-88 ± 2) %; CYP2D6 Efficacy (in parenthesis) [2]: 37.5 ± 45.35 (15 ± 47) %; Luciferase Efficacy (in parenthesis) [3]: 3.42 ± 1.53 (-57 ± 5) %; pIC50 ([3]; read-out: Luciferase IC50 (half-maximal inhibitory concentration)): 5.47; CYP3A4 Efficacy (in parenthesis) [4]: 3.23 ± 1.25 (-75 ± 7) %; CYP2C9 Efficacy (in parenthesis) [5]: 0.57 ± 0.07 (-99 ± 3) %; CYP2C19 Efficacy (in parenthesis) [6]: 3.94 ± 2.15 (-155 ± 9) %
8 | OCC(c1ccc(Cl)cc1)c1ccc(Cl)cc1 [2,2-Bis(4-chlorophenyl)ethanol] | 4.46 | – | Inactive | – | – | 6.85 | Inactive | 11.71 ± 0.79 (-108 ± 10) % | CYP1A2 Efficacy [1]: 34.28 ± 2.23 (-78 ± 6) %; CYP1A2 Efficacy (in parenthesis) [1]: 34.28 ± 2.23 (-78 ± 6) %; AC50 [4]: 18.7 µM; CYP3A4 Efficacy (in parenthesis) [4]: 18.71 ± 6.46 (64 ± 10) %; CYP3A4 IC50 (half-maximal inhibitory concentration) [4]: 18.71 ± 6.46 (64 ± 10) µM; AC50 [5]: 11.7 µM; CYP2C9 Efficacy (in parenthesis) [5]: 11.71 ± 0.79 (-108 ± 10) %; CYP2C19 Efficacy [6]: 0.14 ± 0.07 (-161 ± 31) %; CYP2C19 Efficacy (in parenthesis) [6]: 0.14 ± 0.07 (-161 ± 31) %
9 | CCOc1cc(OCC)c(C(C)=O)cc1OCC [2,4,5-Triethoxyacetophenone] | 6.06 | 4.16 | Inactive | 4.23 | – | 4.19 | – | 37.98 ± 5.23 (-54 ± 11) % | –
10 | Cc1cc(N=Nc2ccccc2C)ccc1N [2-Amino-5-azotoluene] | 6.00 | 4.34 | – | 5.60 | – | 5.21 | – | 5.45 ± 1.48 (-102 ± 10) % | pIC50 ([3]; read-out: Luciferase IC50): 5.25
11 | Nc1nc2ccc([N+](=O)[O-])cc2s1 [2-Amino-6-nitrobenzothiazole] | 5.01 | 4.36 | – | 4.22 | – | 4.45 | – | 59.75 ± 4.61 (-39 ± 3) % | pIC50 ([3]; read-out: Luciferase IC50): 4.18
12 | Clc1ccc2c(c1)Nc1ccccc1S2 [2-Chlorophenothiazine] | 6.36 | – | Inactive | – | – | 5.11 | Inactive | 11.4 ± 3.88 (-60 ± 10) % | CYP3A4 IC50 (half-maximal inhibitory concentration) [4]: Inactive
